Values joined by “and” are separate entries in the source; they are usually repeats but may differ in a detail not shown here. Equal entries are not always repeated. Inconclusive results and toxic doses are left out. Cut-off read from the data, not from the text of the source: active = T/C of 150% or more; inactive = T/C below 125%.
Tested on: L1210 leukemia ip in BDF1 mice, survival T/C
Test: NCI In Vivo Anticancer Drug Screen. Data for tumor model L1210 Leukemia (intraperitoneal) in B6D2F1 (BDF1) mice
Conditions: endpoint: mean survival time, higher = longer survival
Outline: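 Tumor cells were implanted, animals were treated, and survival was followed. The result divides the treated measurement by the vehicle-control measurement.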

[1] = dose: 100.0 mg/kg/injection, schedule: Q04DX003 (ip), vehicle: carboxymethylcellulose (CMC)
[2] = dose: 200.0 mg/kg/injection, schedule: Q04DX003 (ip), vehicle: carboxymethylcellulose (CMC)
[3] = dose: 100.0 mg/kg/injection, schedule: Q01DX001 (ip), vehicle: carboxymethylcellulose (CMC)
[4] = dose: 200.0 mg/kg/injection, schedule: Q01DX001 (ip), vehicle: carboxymethylcellulose (CMC)
[5] = dose: 400.0 mg/kg/injection, schedule: Q01DX001 (ip), vehicle: carboxymethylcellulose (CMC)
[6] = dose: 50.0 mg/kg/injection, schedule: Q01DX001 (ip), vehicle: carboxymethylcellulose (CMC)
[7] = dose: 100.0 mg/kg/injection, schedule: Q01DX009 (ip), vehicle: Klucel (hydroxypropylcellulose) (HPC)
[8] = dose: 200.0 mg/kg/injection, schedule: Q01DX009 (ip), vehicle: Klucel (hydroxypropylcellulose) (HPC)
[9] = dose: 75.0 mg/kg/injection, schedule: Q01DX001 (ip), vehicle: other
[10] = dose: 150.0 mg/kg/injection, schedule: Q01DX001 (ip), vehicle: other
[11] = dose: 100.0 mg/kg/injection, schedule: Q04DX002 (ip), vehicle: Klucel (hydroxypropylcellulose) (HPC)
[12] = dose: 400.0 mg/kg/injection, schedule: Q01DX009 (ip), vehicle: Klucel (hydroxypropylcellulose) (HPC)
[13] = dose: 100.0 mg/kg/injection, schedule: Q04DX003 (ip), vehicle: saline
[14] = dose: 100.0 mg/kg/injection, schedule: Q04DX002 (ip), vehicle: saline with Tween-80
[15] = dose: 200.0 mg/kg/injection, schedule: Q04DX002 (ip), vehicle: saline with Tween-80
[16] = dose: 400.0 mg/kg/injection, schedule: Q04DX002 (ip), vehicle: saline with Tween-80

Measured: T/C

CN(C(=O)c1ccncc1)c1ccccc1
inactive: dose: 50.0 mg/kg/injection, schedule: Q01DX009 (ip), vehicle: carboxymethylcellulose (CMC) 93 % of control and 98 % of control | dose: 50.0 mg/kg/injection, schedule: Q04DX002 (ip), vehicle: carboxymethylcellulose (CMC) 95 % of control and 100 % of control | dose: 50.0 mg/kg/injection, schedule: Q04DX003 (ip), vehicle: carboxymethylcellulose (CMC) 95 % of control | dose: 100.0 mg/kg/injection, schedule: Q01DX009 (ip), vehicle: carboxymethylcellulose (CMC) 98 % of control and 90 % of control | dose: 100.0 mg/kg/injection, schedule: Q04DX002 (ip), vehicle: carboxymethylcellulose (CMC) 100 % of control (2×) and 106 % of control | [1] 97 % of control | dose: 200.0 mg/kg/injection, schedule: Q01DX009 (ip), vehicle: carboxymethylcellulose (CMC) 90 % of control and 91 % of control | dose: 200.0 mg/kg/injection, schedule: Q04DX002 (ip), vehicle: carboxymethylcellulose (CMC) 97 % of control (2×) and 98 % of control | [2] 98 % of control | dose: 400.0 mg/kg/injection, schedule: Q04DX002 (ip), vehicle: carboxymethylcellulose (CMC) 93 % of control

COc1ccccc1-n1c(O)c(N=Nc2ccc(Br)cc2)c(=O)n(-c2ccc(Cl)cc2)c1=S
inactive: dose: 100.0 mg/kg/injection, schedule: Q01DX001 (ip), vehicle: Klucel (hydroxypropylcellulose) (HPC) 101 % of control | dose: 200.0 mg/kg/injection, schedule: Q01DX001 (ip), vehicle: Klucel (hydroxypropylcellulose) (HPC) 107 % of control

CS(=O)(=O)Oc1c(Cl)cc(Cl)c2cccnc12
inactive: [3] 102 % of control | [4] 102 % of control | [5] 111 % of control

CC(=O)[O][Hg][c]1cc2c(cc1O)Cc1cc([N+](=O)[O-])ccc1-2
inactive: dose: 12.5 mg/kg/injection, schedule: Q01DX001 (ip), vehicle: carboxymethylcellulose (CMC) 105 % of control | dose: 25.0 mg/kg/injection, schedule: Q01DX001 (ip), vehicle: carboxymethylcellulose (CMC) 100 % of control | [6] 97 % of control

CCOC(=O)c1ccc(N=Cc2ccccc2O)cc1
inactive: dose: 50.0 mg/kg/injection, schedule: Q01DX009 (ip), vehicle: Klucel (hydroxypropylcellulose) (HPC) 98 % of control | dose: 75.0 mg/kg/injection, schedule: Q01DX001 (ip), vehicle: Klucel (hydroxypropylcellulose) (HPC) 88 % of control | [7] 89 % of control | dose: 150.0 mg/kg/injection, schedule: Q01DX001 (ip), vehicle: Klucel (hydroxypropylcellulose) (HPC) 105 % of control | [8] 106 % of control | dose: 300.0 mg/kg/injection, schedule: Q01DX001 (ip), vehicle: Klucel (hydroxypropylcellulose) (HPC) 88 % of control

Cc1cc(NCCN(C(C)C)C(C)C)nc(/N=C(\N)Nc2ccc(Cl)c(Cl)c2)n1
inactive: dose: 4.69 mg/kg/injection, schedule: Q01DX009 (ip), vehicle: Klucel (hydroxypropylcellulose) (HPC) 95 % of control | dose: 9.38 mg/kg/injection, schedule: Q01DX009 (ip), vehicle: Klucel (hydroxypropylcellulose) (HPC) 93 % of control | dose: 18.75 mg/kg/injection, schedule: Q01DX009 (ip), vehicle: Klucel (hydroxypropylcellulose) (HPC) 87 % of control | [9] 94 % of control | [10] 105 % of control

CN(Cc1cc(Cl)cc(Cl)c1O)C1CC2CCC1(C)C2(C)C (configuration not stated)
inactive: dose: 25.0 mg/kg/injection, schedule: Q04DX002 (ip), vehicle: Klucel (hydroxypropylcellulose) (HPC) 96 % of control | dose: 50.0 mg/kg/injection, schedule: Q04DX002 (ip), vehicle: Klucel (hydroxypropylcellulose) (HPC) 103 % of control | [7] 90 % of control | [11] 92 % of control | [8] 88 % of control | [12] 103 % of control

Nc1nc2c(nc([Se])n2C2OC(CO)C(O)C2O)c(=O)[nH]1 (configuration not stated)
inactive: dose: 100.0 mg/kg/injection, schedule: Q01DX005 (ip), vehicle: saline 98 % of control | dose: 200.0 mg/kg/injection, schedule: Q01DX005 (ip), vehicle: saline 98 % of control

COc1ccc(OC)c(NC(=O)c2cccc([N+](=O)[O-])c2)c1
inactive: [3] 94 % of control | [4] 100 % of control | [5] 94 % of control

CCCc1cc2c3c(c(=O)oc2cc1OC)CCCC3
inactive: dose: 100.0 mg/kg/injection, schedule: Q04DX003 (ip), vehicle: saline with Tween-80 93 % of control | dose: 200.0 mg/kg/injection, schedule: Q04DX003 (ip), vehicle: saline with Tween-80 104 % of control | dose: 400.0 mg/kg/injection, schedule: Q04DX003 (ip), vehicle: saline with Tween-80 93 % of control

COC(=O)C1OC1c1ccc2ccccc2c1 (configuration not stated)
inactive: [7] 93 % of control | [8] 95 % of control | [12] 97 % of control

CCC(=O)c1cc([N+](=O)[O-])ccc1NC(C)=O
inactive: dose: 100.0 mg/kg/injection, schedule: Q01DX009 (ip), vehicle: saline with Tween-80 97 % of control | dose: 200.0 mg/kg/injection, schedule: Q01DX009 (ip), vehicle: saline with Tween-80 94 % of control | dose: 400.0 mg/kg/injection, schedule: Q01DX009 (ip), vehicle: saline with Tween-80 94 % of control

CCOC(=O)C(C)(C)CC(=O)COC
inactive: dose: 100.0 mg/kg/injection, schedule: Q01DX001 (ip), vehicle: acetone 98 % of control | dose: 100.0 mg/kg/injection, schedule: Q01DX009 (ip), vehicle: acetone 95 % of control | dose: 200.0 mg/kg/injection, schedule: Q01DX001 (ip), vehicle: acetone 100 % of control | dose: 200.0 mg/kg/injection, schedule: Q01DX009 (ip), vehicle: acetone 90 % of control | dose: 400.0 mg/kg/injection, schedule: Q01DX001 (ip), vehicle: acetone 94 % of control | dose: 400.0 mg/kg/injection, schedule: Q01DX009 (ip), vehicle: acetone 105 % of control

Nc1ncnc2c1cnn2Cc1ccc(Cl)cc1
inactive: dose: 50.0 mg/kg/injection, schedule: Q01DX009 (ip), vehicle: saline 100 % of control | [3] 98 % of control and 103 % of control | dose: 100.0 mg/kg/injection, schedule: Q01DX009 (ip), vehicle: saline 88 % of control | [1] 97 % of control | [4] 93 % of control and 115 % of control | [2] 95 % of control | [5] 96 % of control and 121 % of control

CCCCCCCCCCCC(=O)Nc1cc(C(C)C)ccc1C
inactive: dose: 100.0 mg/kg/injection, schedule: Q01DX001 (ip), vehicle: saline 87 % of control | [13] 88 % of control | dose: 200.0 mg/kg/injection, schedule: Q01DX001 (ip), vehicle: saline 86 % of control | dose: 400.0 mg/kg/injection, schedule: Q01DX001 (ip), vehicle: saline 91 % of control

CCOC(=O)c1ccc2c3c([nH]c2c1C)-c1ccccc1CC3
inactive: [6] 95 % of control | [3] 97 % of control | [4] 106 % of control | [5] 103 % of control

CC(=O)NC(CO)C(O)c1ccc([N+](=O)[O-])cc1 (configuration not stated)
inactive: dose: 100.0 mg/kg/injection, schedule: Q01DX001 (ip), vehicle: saline with Tween-80 101 % of control | [14] 87 % of control | dose: 200.0 mg/kg/injection, schedule: Q01DX001 (ip), vehicle: saline with Tween-80 87 % of control | [15] 94 % of control | dose: 400.0 mg/kg/injection, schedule: Q01DX001 (ip), vehicle: saline with Tween-80 97 % of control | [16] 100 % of control

CCN(CC)CCOC(=O)C(S)(c1ccccc1)C1CCCCC1 (configuration not stated)
inactive: [9] 90 % of control | [10] 87 % of control

CCCCCCCCC1SC(=S)NC1CCCCCCCC(=O)OC (configuration not stated)
inactive: [14] 96 % of control | [15] 100 % of control | [16] 100 % of control

O=c1ccn(Cc2ccccc2)cn1
inactive: [13] 106 % of control | dose: 200.0 mg/kg/injection, schedule: Q04DX003 (ip), vehicle: saline 104 % of control | dose: 400.0 mg/kg/injection, schedule: Q04DX003 (ip), vehicle: saline 98 % of control

CCCCNC(=O)N(CC)c1cccc(C)c1
inactive: [11] 105 % of control | dose: 200.0 mg/kg/injection, schedule: Q04DX002 (ip), vehicle: Klucel (hydroxypropylcellulose) (HPC) 118 % of control | dose: 400.0 mg/kg/injection, schedule: Q04DX002 (ip), vehicle: Klucel (hydroxypropylcellulose) (HPC) 102 % of control

Source: PubChem BioAssay AID248 (DTP/NCI, 2004)
